Source: patent publication US20130310256A1, “HERBICIDAL COMPOSITIONS COMPRISING 4-AMINO-3-CHLORO-5-FLUORO-6-(4-CHLORO-2-FLUORO-3-METHOXYPHENYL) PYRIDINE-2-CARBOXYLIC ACID OR A DERIVATIVE THEREOF AND VLCFA AND LIPID SYNTHESIS INHIBITING HERBICIDES” (DOW AGROSCIENCES LLC, priority 2008, published 2013)

How the values were obtained:
CIRAR = assay: Example III: post-emergence foliar-applied weed control in cereal crops, greenhouse; assay type: in vivo, Cirsium arvense (L.) Scop.; conditions: 21 DAA
Protocol: (§1) Seeds of the desired test plant species were planted in Sun Gro MetroMix® 306 planting mixture, which typically has a pH of 6.0 to 6.8 and an organic matter content of about 30 percent, in plastic pots with a surface area of 103.2 square centimeters (cm^2). When required to ensure good germination and healthy plants, a fungicide treatment and/or other chemical or physical treatment was applied. The plants were grown for 7-36 days in a greenhouse with an approximate 14 hour photoperiod which was maintained at about 18° C. during the day and 17° C. during the night. Nutrients and water were added on a regular basis and supplemental lighting was provided with overhead metal halide 1000-Watt lamps as necessary. The plants were employed for testing when they reached the second or third true leaf stage.
(§2) Treatments consisted of the benzyl ester of 4-amino-3-chloro-5-fluoro-6-(4-chloro-2-fluoro-3-methoxy-phenyl)pyridine-2-carboxylic acid (Compound A), formulated as an SC (suspension concentrate), and a second cereal herbicide alone and in combination.
(§3) Measured aliquots of the benzyl ester of 4-amino-3-chloro-5-fluoro-6-(4-chloro-2-fluoro-3-methoxy-phenyl)pyridine-2-carboxylic acid (Compound A) were placed in 25 milliliter (mL) glass vials and diluted in a volume of 1.25% (v/v) Agri-dex crop oil concentrated to obtain stock solutions. Compound requirements are based upon a 12 mL application volume at a rate of 187 liters per hectare (L/ha). Spray solutions of the second cereal herbicide and experimental compound mixtures were prepared by adding the stock solutions to the appropriate amount of dilution solution to form 12 mL spray solution with active ingredients in two- and three-way combinations. Formulated compounds were applied to the plant material with an overhead Mandel track sprayer equipped with an 8002E nozzle calibrated to deliver 187 L/ha over an application area of 0.503 square meters (m^2) at a spray height of 18 inches (46 cm) above average plant canopy. Control plants were sprayed in the same manner with the solvent blank.
(§4) The treated plants and control plants were placed in a greenhouse as described above and watered by sub-irrigation to prevent wash-off of the test compounds. After 20-22 days, the condition of the test plants as compared with that of the control plants was determined visually and scored on a scale of 0 to 100 percent where 0 corresponds to no injury and 100 corresponds to complete kill.
(§5) Colby's equation was used to determine the herbicidal effects expected from the mixtures (Colby, S. R. 1967. Calculation of the synergistic and antagonistic response of herbicide combinations. Weeds 15:20-22.).

GALAP = assay: as above; assay type: in vivo, Galium aparine L.; conditions: 21 DAA
Protocol: as §1, §2, §3, §4, §5

PAPRH = assay: as above; assay type: in vivo, Papaver rhoeas L.; conditions: 21 DAA
Protocol: as §1, §2, §3, §4, §5

IPOHE = assay: Example IV: pre-emergence soil-applied weed control, greenhouse; assay type: in vivo, Ipomoea hederacea Jacq. (ivyleaf morningglory)
Source text: (§6) Seeds or nutlets of the desired test plant species were planted in a soil matrix prepared by mixing a loam soil (32 percent silt, 23 percent clay, and 45 percent sand, with a pH of about 6.5 and an organic matter content of about 1.9 percent) and calcareous grit in an 80 to 20 ratio. The soil matrix was contained in plastic pots with a volume of 1 quart and a surface area of 83.6 square centimeters (cm^2).
(§7) Treatments consisted of the benzyl ester of 4-amino-3-chloro-5-fluoro-6-(4-chloro-2-fluoro-3-methoxy-phenyl)pyridine-2-carboxylic acid (compound A) formulated as an SC (suspension concentrate) and various herbicidal components alone and in combination. Forms of compound A were applied on an acid equivalent basis.
(§8) Other herbicidal components were applied on an active ingredient basis and included very long chain fatty acid (VLCFA) synthesis-inhibiting and fatty acid/lipid synthesis-inhibiting herbicides alachlor (technical grade material), dimethenamid-P formulated as Outlook®, and S-metolachlor formulated as Dual® II Magnum.
(§9) Treatment requirements were calculated based upon the rates being tested, the concentration of active ingredient or acid equivalent in the formulation, and a 12 mL application volume at a rate of 187 L/ha.
(§10) For treatments comprised of formulated compounds, measured amounts of compounds were placed individually in 25 mL glass vials and diluted in a volume of 1.25% (v/v) Agri-Dex® crop oil concentrate (COC) to obtain 12× stock solutions. […] Application solutions were prepared by adding an appropriate amount of each stock solution (e.g., 1 mL) and diluted to the appropriate final concentrations with the addition of 10 mL of an aqueous mixture of 1.25% (v/v) COC so that the final spray solutions contained 1.25% (v/v) COC.
(§11) For treatments comprised of technical compounds, weighed amounts can be placed individually in 25 mL glass vials and dissolved in a volume of 97:3 (v/v) acetone/DMSO to obtain 12× stock solutions. […] Application solutions can be prepared by adding an appropriate amount of each stock solution (e.g., 1 mL) and diluted to the appropriate final concentrations with the addition of 10 mL of an aqueous mixture of 1.5% (v/v) COC so that the final spray solutions contain 1.25% (v/v) COC. When technical materials are used, the concentrated stock solutions can be added to the spray solutions so that the final acetone and DMSO concentrations of the application solutions are 16.2% and 0.5%, respectively.
For treatments comprised of formulated and technical compounds, weighed amounts of the technical materials were placed individually in 25 mL glass vials and dissolved in a volume of 97:3 (v/v) acetone/DMSO to obtain 12× stock solutions, and measured amounts of the formulated compounds were placed individually in 25 mL glass vials and diluted in a volume of 1.5% (v/v) COC or water to obtain 12× stock solutions. […] Application solutions were prepared by adding an appropriate amount of each stock solution (e.g., 1 mL) and diluted to the appropriate final concentrations with the addition of an appropriate amount of an aqueous mixture of 1.5% (v/v) COC so that the final spray solutions contained 1.25% (v/v) COC. As required, additional water and/or 97:3 (v/v) acetone/DMSO was added to individual application solutions so that the final acetone and DMSO concentrations of the application solutions being compared were 8.1% and 0.25%, respectively.
All stock solutions and applications solutions were visually inspected for compound compatibility prior to application. Spray solutions were applied to the soil with an overhead Mandel track sprayer equipped with a 8002E nozzles calibrated to deliver 187 L/ha over an application area of 0.503 m^2 at a spray height of 18 inches (46 cm) above average pot height. Control pots were sprayed in the same manner with the solvent blank.
The treated and control pots were placed in a greenhouse and top watered as needed. […]

XANST = assay: as above; assay type: in vivo, Xanthium strumarium L. (common cocklebur); conditions: 32 gae/ha, 29 DAA
Source text: as §6, §7, §8, §9, §10
as §11, with “When technical materials are used, the concentrated stock solutions can be added to the spray solutions so that the final acetone and DMSO concentrations of the application solutions are 16.2% and 0.5%, respectively.” left out
For treatments comprised of formulated and technical compounds, weighed amounts of the technical materials were placed individually in 25 mL glass vials and dissolved in a volume of 97:3 (v/v) acetone/DMSO to obtain 12× stock solutions, and measured amounts of the formulated compounds were placed individually in 25 mL glass vials and diluted in a volume of 1.5% (v/v) COC or water to obtain 12× stock solutions. […]

COc1c(Cl)ccc(-c2nc(C(=O)OCc3ccccc3)c(Cl)c(N)c2F)c1F [Compound A Benzyl Ester, benzyl ester of 4-amino-3-chloro-5-fluoro-6-(4-chloro-2-fluoro-3-methoxy-phenyl)pyridine-2-carboxylic acid]
Visual Weed Control CIRAR Obs (CIRAR; 2.5 gai/ha): 48% | Visual Weed Control CIRAR Obs (CIRAR; 5 gai/ha): 39% | Visual Weed Control CIRAR Obs (CIRAR; 10 gai/ha): 60% | Visual Weed Control GALAP Obs (GALAP; 2.5 gai/ha): 55% | Visual Weed Control GALAP Obs (GALAP; 5 gai/ha): 66% | Visual Weed Control GALAP Obs (GALAP; 10 gai/ha): 77% | Visual Weed Control PAPRH Obs (PAPRH; 2.5 gai/ha): 48% | Visual Weed Control PAPRH Obs (PAPRH; 5 gai/ha): 28% | Visual Weed Control PAPRH Obs (PAPRH; 10 gai/ha): 35% | Visual Weed Control IPOHE Obs (IPOHE; 16 gae/ha, 28 DAA): 13% | Visual Weed Control IPOHE Obs (IPOHE; 32 gae/ha, 27 DAA): 28% | Visual Weed Control IPOHE Obs (IPOHE; 32 gae/ha, 28 DAA): 23% | Visual Weed Control XANST Obs (XANST): 5%
